“Also recorded” adds a separate entry of the source.
Columns and labels:
Type in all cases: cell-based, mouse
WT CD4+ T cells = assay: T-cell activation marker expression by flow cytometry after IL-2 and CD3/CD28 stimulation
Protocol: (§1) Spleens from WT or Yap-cKO mice were pushed through a 70 μm mesh (Falcon) using an insulin syringe plunger and washed with PBS. Cells were treated with ACK red blood cell lysis buffer, and splenocyte single-cell suspensions were prepared for magnetic separation or stained for sorting by flow cytometry. CD4^+ or CD8^+ T-cell enrichment was performed using magnetic beads (Miltenyi Biotec or STEMCELL Technologies). Naïve CD4^+ T cells were isolated using a naïve CD4^+ T-cell isolation kit (Miltenyi Biotec).
(§2) Isolated splenocytes or tumor digests were washed with PBS and stained with the LIVE/DEAD fixable near-IR dead cell stain kit (Invitrogen). Cells were then washed with stain buffer (BD), resuspended in stain buffer containing Fc block (BD), and incubated for 5 minutes at 4° C. Surface antibodies were added in predetermined concentrations, and cells were incubated for 30 minutes at 4° C. or 15 minutes at room temperature, before being washed with BD stain buffer and resuspended in PBS for flow cytometric analysis. For intracellular cytokine staining, cells were fixed and permeabilized using the BD Cytofix/Cytoperm Fixation/Permeabilization kit (BD) after dead cell dye and surface staining. For transcription factor staining, the eBioscience Foxp3/transcription factor staining buffer set was used. Flow cytometry analyses were performed on BD LSRII at Boston University School of Medicine Flow Cytometry Facility or at the University of Maryland School of Medicine Center for Innovative Biomedical Resources, Flow Cytometry Shared Service and analyzed by Flowlo (TreeStar).
(§3) Cells were cultured and stimulated in 96-well plates at 1×10^5 cells per well. Plates were coated with anti-CD3 antibody (Biolegend) at concentrations of 0, 0.125, 0.25, 0.5, and 1 μg/ml at 4° C. overnight and were washed twice with PBS before incubation. Cells were stimulated in the anti-CD3-coated plates with soluble anti-CD28 at 2 μg/ml (Biolegend). On days 1 and 3, cells were stained with dead cell dye as well as antibodies recognizing the lineage and activation markers CD3 BUV737 (BD), CD4 BUV395 (BD), CD8 PerCP-Cy5.5 (Biolegend), CD69 PE (Biolegend), CD44 BV650 (Biolegend), and CD25 APC (Biolegend). For proliferation assays, CD4^+ or CD8^+ T cells were isolated and stained using the CellTrace Violet or CFSE Cell Proliferation Kit (Life Technologies). Briefly, purified cells were washed with PBS and incubated with CellTrace dye for 20 minutes at 37° C. protected from light. After 20 minutes, complete RMPI medium was added to the cell suspension, and the cells were incubated 5 minutes further before being washed and resuspended in complete RPMI medium. […] On days 1 and 3, cells were stained with dead cell dye, and proliferation was measured at the same time.

WT CD8+ T cells = assay: as above
Protocol: as §1, §2, §3

WT CD4+ and CD8+ T cells = assay: T-cell proliferation assay (CellTrace Violet or CFSE); conditions: DMSO- versus verteporfin-treated, 3 days post stimulation with IL-2, anti-CD3 and anti-CD28 (FIG. 6K)
Protocol: Cells were cultured and stimulated in 96-well plates at 1×10^5 cells per well. Plates were coated with anti-CD3 antibody (Biolegend) at concentrations of 0, 0.125, 0.25, 0.5, and 1 μg/ml at 4° C. overnight and were washed twice with PBS before incubation. Cells were stimulated in the anti-CD3-coated plates with soluble anti-CD28 at 2 μg/ml (Biolegend). On days 1 and 3, cells were stained with dead cell dye as well as antibodies recognizing the lineage and activation markers CD3 BUV737 (BD), CD4 BUV395 (BD), CD8 PerCP-Cy5.5 (Biolegend), CD69 PE (Biolegend), CD44 BV650 (Biolegend), and CD25 APC (Biolegend). For proliferation assays, CD4^+ or CD8^+ T cells were isolated and stained using the CellTrace Violet or CFSE Cell Proliferation Kit (Life Technologies). Briefly, purified cells were washed with PBS and incubated with CellTrace dye for 20 minutes at 37° C. protected from light. After 20 minutes, complete RMPI medium was added to the cell suspension, and the cells were incubated 5 minutes further before being washed and resuspended in complete RPMI medium. Cells were cultured in 96-well plates at 1×10^5 cells per well and were stimulated using anti-CD3/CD28 dynabeads (Gibco) at a 1:1 ratio with T cells. On days 1 and 3, cells were stained with dead cell dye, and proliferation was measured at the same time.

## Verteporfin
WT CD4+ T cells; 72 hours (3 days) post IL-2 and CD3/CD28 stimulation, increasing concentration of verteporfin (FIG. 6I, FIG. 11E)
  CD69 expression on WT CD4+ T cells: increased levels of early activation markers
WT CD4+ T cells; 72 hours post IL-2 and CD3/CD28 stimulation, increasing concentration of verteporfin (FIG. 1I)
  CD71 expression on WT CD4+ T cells: increased levels of early activation markers CD71
WT CD8+ T cells; 72 hours (3 days) post IL-2 and CD3/CD28 stimulation, increasing concentration of verteporfin (FIG. 6J, FIG. 11F)
  CD69 expression on WT CD8+ T cells: increased levels of early activation markers
WT CD8+ T cells; 72 hours post IL-2 and CD3/CD28 stimulation, increasing concentration of verteporfin (FIG. 1J)
  CD71 expression on WT CD8+ T cells: increased levels of early activation markers CD71
WT CD4+ and CD8+ T cells
  Proliferation of T cells isolated from WT mice: did not significantly affect proliferation; also recorded: neither Yap deletion nor verteporfin treatment significantly impacted T-cell proliferation

Reference: US20200323905A1, “METHODS AND COMPOSITIONS FOR MODULATING THE IMMUNE SYSTEM” (Trustees of Boston University, priority 2019, published 2020)
